Positions count from the first letter of the chain named. “And” between values parts separate entries of the source, which are not always exact repeats. Equal values may be shown once. Where a SMILES comes first, the peptide text is derived from it.
Assays:
Assay type in all cases: cell-based, rabbit
Y345F-rPepT1 = molecular target: T1, Y345F-rPepT1 (Oryctolagus cuniculus, UniProt P36836, Y345F); experiment: Competition of [3H]-D-Phe-L-Gln uptake into Xenopus oocytes, Ki; conditions: against 0.4 μM [3H]-D-Phe-L-Gln uptake
T1 construct: expressed in transfected cells; host or cells: Xenopus laevis oocytes injected with cRNA
T1 sequence (P36836 1-707 Y345F): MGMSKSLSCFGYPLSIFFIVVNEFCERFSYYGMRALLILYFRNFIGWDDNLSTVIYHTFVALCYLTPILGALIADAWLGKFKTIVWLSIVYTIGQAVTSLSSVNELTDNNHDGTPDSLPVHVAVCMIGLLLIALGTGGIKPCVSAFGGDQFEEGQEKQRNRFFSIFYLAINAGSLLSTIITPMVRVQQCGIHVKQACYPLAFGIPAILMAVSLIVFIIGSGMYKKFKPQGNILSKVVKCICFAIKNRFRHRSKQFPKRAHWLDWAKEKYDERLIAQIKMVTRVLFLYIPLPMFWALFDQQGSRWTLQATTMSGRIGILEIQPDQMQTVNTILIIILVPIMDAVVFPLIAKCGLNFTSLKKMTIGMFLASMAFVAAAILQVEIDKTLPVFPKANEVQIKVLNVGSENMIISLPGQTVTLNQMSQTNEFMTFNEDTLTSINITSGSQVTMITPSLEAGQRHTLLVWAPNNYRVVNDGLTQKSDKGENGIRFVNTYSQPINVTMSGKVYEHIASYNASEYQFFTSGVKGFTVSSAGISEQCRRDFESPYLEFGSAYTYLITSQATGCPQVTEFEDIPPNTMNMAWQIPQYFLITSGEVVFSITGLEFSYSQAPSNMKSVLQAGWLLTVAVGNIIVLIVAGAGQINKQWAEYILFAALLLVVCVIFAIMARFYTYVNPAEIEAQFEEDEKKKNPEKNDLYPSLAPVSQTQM
Method: (§1) rPepT1 constructs were linearised with XbaI (New England Biolabs, UK) and cRNA generated by in vitro transcription (T7 mMessage mMachine, Ambion, Cambridgeshire, UK). Xenopus laevis oocytes were obtained under MS222 anaesthesia (0.2%, w/v) in accordance with the UK Animals (Scientific Procedures) Act, 1986, and maintained at 18 °C in modified Barth's medium (88 mM NaCl, 1 mM KCl, 0.82 mM MgSO4, 2.4 mM NaHCO3, 0.42 mM CaCl2, 10 mM Hepes, 5 mM sodium pyruvate, 50 μg ml^−1 gentamicin (Fluka, Poole, UK), adjusted to pH 7.6 with 1 M NaOH). Transport measurements were performed at least 72 h after micro-injection of oocytes with 27nl cRNA (1 μg/μl), with medium changed daily.
(§2) Uptake of [^3H]-D-Phe-L-Gln (17.4 Ci/mmole, custom synthesised, Cambridge Research Biochemicals, Stockton-on-Tees, UK) was performed as previously described ([Meredith, 2004]). Briefly, 5 oocytes were incubated in 100 μl of uptake medium (95 mM NaCl, 2 mM KCl, 1 mM CaCl2, 0.42 mM MgCl2, 10 mM Tris/Hepes pH 7.4 or Tris/Mes pH 5.5) with tracer (0.4 μM) [^3H]-D-Phe-L-Gln. After incubation, the oocytes were washed sequentially five times in 1 ml of ice-cold 120 mM NaCl solution, lysed individually with 100 μl 2% (w/v) SDS and liquid scintillation counted. As a control non-injected oocytes were also incubated in uptake medium with D-Phe-L-Gln as above.
(§3) The affinity of wild-type and mutant rPepT1 transporters were assessed by competition studies with 0.4 μM [^3H]-D-Phe-L-Gln and Gly-L-Gln present in the uptake medium in concentrations from 0 to 2 mM using the protocol above, and the Ki calculated using the method of [Deves and Boyd (1989)].

wild-type rPepT1 = molecular target: T2, wild-type rPepT1 (Oryctolagus cuniculus, UniProt P36836); experiment: Competition of [3H]-D-Phe-L-Gln uptake into Xenopus oocytes, Ki by method of Deves and Boyd; conditions: against 0.4 μM [3H]-D-Phe-L-Gln uptake
T2 construct: expressed in transfected cells; host or cells: Xenopus laevis oocytes injected with cRNA
T2 sequence (P36836 1-707): T1 sequence (P36836 1-707 Y345F) with F345Y
Method: as §1, §2, §3

Y167Q-rPepT1 = molecular target: T3, Y167Q-rPepT1 (Oryctolagus cuniculus, UniProt P36836, Y167Q); experiment: Uptake of tracer [3H]-D-Phe-L-Gln into Xenopus oocytes; conditions: both pHout 5.5 and 7.4
T3 construct: expressed in transfected cells; host or cells: Xenopus laevis oocytes injected with cRNA
T3 sequence (P36836 1-707 Y167Q): T1 sequence (P36836 1-707 Y345F) with Y167Q, F345Y
Method: as §1, §2

Row | Ki (Y345F-rPepT1; pHout 5.5) | Ki (Y345F-rPepT1; pHout 7.4) | Ki (wild-type rPepT1; pHout 5.5) | Ki (wild-type rPepT1; pHout 7.4) | reduction of uptake compared to the wild-type (Y167Q-rPepT1) | Molecule
1 | 320 ± 70 µM | 180 ± 50 µM | 320 µM and 330 µM | 110 ± 10 µM | – | NCC(=O)N[C@@H](CCC(N)=O)C(=O)O [Gly-L-Gln] (H-Gly-Gln-OH)
2 | – | – | – | – | > 90% | [^3H]-D-Phe-L-Gln
